Assay results from patent publication US10072034B2, “Kinase inhibitors” (Respivert Limited, priority 2016, dated 2018).
≈ marks a conversion by molar mass, not a printed value. Structures can show the parent of a compound that is named as a salt. Where two headings read alike, the source gives them in different places.

Columns and labels:
IL-8 release in PBMCs = test: LPS-induced IL-8 release in PBMC cells (assay (b)); assay type: cell-based; conditions: Homo sapiens, LPS-stimulated PBMCs
Text: Peripheral blood mononuclear cells (PBMCs) from healthy subjects are separated from whole blood using a density gradient (Lymphoprep, Axis-Shield Healthcare). […] The supernatant is harvested for determination of IL-8 and TNFα concentrations by sandwich ELISA (Duo-set, R&D systems) and read on the fluorescence microplate reader (Varioskan® Flash, ThermoFisher Scientific).

[1] = Solubility in fasted-state simulated colonic fluid (FaSSCoF) at pH 6.5; assay type: physicochemical; conditions: pH 6.5, 25° C.; for solubility thermodynamic at 24 h: fasted-state simulated colonic fluid (FaSSCoF), 25 °C, pH 6.5, fassgf or other biorelevant, thermodynamic from solid
Procedure: The solubilities of compounds of the invention in FaSSCoF at pH 6.5 are determined using a modification of a previously-reported procedure (Vertzoni, M., et al. Pharm. Res. 2010, 27, 2187-2196). In place of the bile salt extract employed in the original procedure (which extract is no longer available), the modified procedure uses a mixture of sodium taurocholate (0.15 g), glycocholic acid (0.15 g), ursodeoxycholic acid (0.05 g), cholic acid (0.05 g), and glycodeoxycholic acid (0.05 g). These five bile acids are ground together with a mortar and pestle to produce a fine white powder that is incorporated into the FaSSCoF, as outlined below.
FaSSCoF medium: Tris(hydroxymethyl)aminomethane (Tris; 0.275 g) and maleic acid (0.44 g) are dissolved in water (35 mL) to give a solution whose pH is adjusted to 6.5 by treatment with 0.5M NaOH (ca. 12 mL). The solution is then made up to 50 mL with water. A portion of this Tris/maleate buffer solution (ca. 25 mL) is added to a 0.5 L round-bottomed flask, before being treated with 0.00565 g of the bile acid mixture described above. Solutions of phosphatidylcholine (0.0111 g) in DCM (0.15 mL) and palmitic acid (0.0013 g) in DCM (0.15 mL) are added, then the organic solvent is evaporated off under reduced pressure at 40° C. until a clear solution, with no perceptible DCM odour, is achieved. The volume of the evaporated solution is adjusted to 50 mL by addition of the remainder of Tris/maleate buffer, then BSA (0.115 g) is added, before being dissolved by gentle agitation.
Solubility Determination: Test compounds are suspended in the pH 6.5 FaSSCoF medium to give a maximum final concentration of 2-10 mg/mL. The suspensions are equilibrated at 25° C. for 24 h, before being filtered through a glass fibre C filter. The filtrates are then diluted as appropriate for injection and quantification by HPLC with reference to a standard. Different volumes of the standard, diluted and undiluted sample solutions are injected and the solubilities are calculated using the peak areas determined by integration of the peak found at the same retention time as the principal peak in the standard injection.

[2] = Run 1, read-out: pH 6.5 FaSSCoF Solubility Run 1
[3] = Run 2, read-out: pH 6.5 FaSSCoF Solubility Run 2

| Compound | IC50 (IL-8 release in PBMCs) [µM] | further results |
| --- | --- | --- |
| CCS(=O)(=O)Nc1cc(C(C)(C)C)cc(NC(=O)Nc2ccc(Oc3ccnc(Nc4cc(OC)cc(OCCOCCOCC(=O)O)c4)c3)c3ccccc23)c1OC [Example 16] | 0.0163 | – |
| COc1cc(Nc2cc(Oc3ccc(NC(=O)Nc4cc(C(C)(C)C)cc(NS(C)(=O)=O)c4OC)c4ccccc34)ccn2)cc(OCCOCc2ccc(C(=O)O)s2)c1 [Example 26] | 0.0153 | – |
| COc1cc(Nc2cc(Oc3ccc(NC(=O)Nc4cc(C(C)(C)C)cc(NS(C)(=O)=O)c4OC)c4ccccc34)ccn2)cc(OCCOCc2cc(C(=O)O)co2)c1 [Example 12, 5-((2-(3-((4-((4-(3-(5-(tert-Butyl)-2-methoxy-3-(methylsulfonamido)phenyl)ureido)naphthalen-1 yl)oxy)pyridin-2-yl)amino)-5-methoxyphenoxy)ethoxy)methyl)furan-3-carboxylic acid] | 0.0056 | – |
| COc1cc(Nc2nccc(Oc3ccc(NC(=O)Nc4cc(C(C)(C)C)cc(NS(C)(=O)=O)c4OC)c4ccccc34)n2)cc(OCCOCCOCCC(=O)O)c1 [Reference Compound A (sodium salt), reference compound] | – | solubility thermodynamic at 24 h ([1]; Run 3, read-out: pH 6.5 FaSSCoF Solubility Run 3): 0.03 mg/mL; solubility thermodynamic at 24 h ([1]; Run 4, read-out: pH 6.5 FaSSCoF Solubility Run 4): 0.03 mg/mL; pH 6.5 FaSSCoF Solubility Run 1 ([1]; 24 h, Run 1): 0.18 mg/mL; pH 6.5 FaSSCoF Solubility Run 2 ([1]; 24 h, Run 2): 0.12 mg/mL |
| COc1cc(Nc2cc(Oc3ccc(NC(=O)Nc4cc(C(C)(C)C)cc(NS(C)(=O)=O)c4OC)c4ccccc34)ccn2)cc(C(=O)NCCOCCOCC(=O)O)c1 [Example 1, 2-(2-(2-(3-((4-((4-(3-(5-(tert-Butyl)-2-methoxy-3-(methylsulfonamido)phenyl)ureido)-naphthalen-1-yl)oxy)pyridin-2-yl)amino)-5-methoxybenzamido)ethoxy)ethoxy)acetic acid, hydrochloride salt] | 0.115 | – |
| COc1cc(Nc2cc(Oc3ccc(NC(=O)Nc4cc(C(C)(C)C)cc(NS(C)(=O)=O)c4OC)c4ccccc34)ccn2)cc(OCCOCCn2cc(C(=O)O)cn2)c1 [Example 22] | 0.0181 | – |
| COc1cc(Nc2cc(Oc3ccc(NC(=O)Nc4cc(C(C)(C)C)cc(NS(C)(=O)=O)c4OC)c4ccccc34)ccn2)cc(OCCOCCOC(C)(C)C(=O)O)c1 [Example 21] | 0.0144 | – |
| COc1cc(Nc2cc(Oc3ccc(NC(=O)Nc4cc(C(C)(C)C)cc(NS(C)(=O)=O)c4OC)c4ccccc34)ccn2)cc(OCCOCc2cc(C(=O)O)cs2)c1 [Example 27] | 0.0073 | – |
| COc1cc(Nc2cc(Oc3ccc(NC(=O)Nc4cc(C(C)(C)C)cc(NS(C)(=O)=O)c4OC)c4ccccc34)ccn2)cc(OCCOCC(=O)O)c1 [Example 24] | 0.0619 | – |
| COc1cc(Nc2cc(Oc3ccc(NC(=O)Nc4cc(C(C)(C)C)cc(P(C)(C)=O)c4OC)c4ccccc34)ccn2)cc(OCCOCCOCC(=O)O)c1 [Example 10, 2-(2-(2-(3-((4-((4-(3-(5-(tert-Butyl)-3-(dimethylphosphoryl)-2-methoxyphenyl)ureido)-naphthalen-1-yl)oxy)pyridin-2-yl)amino)-5-methoxyphenoxy)ethoxy)ethoxy)acetic acid] | 0.0265 | – |
| COc1cc(Nc2cc(Oc3ccc(NC(=O)Nc4cc(C(C)(C)C)cc(NS(C)(=O)=O)c4OC)c4ccccc34)ccn2)cc(OCCOCCSCC(=O)O)c1 [Example 19, 2-((2-(2-(3-((4-((4-(3-(5-(tert-Butyl)-2-methoxy-3-(methylsulfonamido)phenyl)ureido)-naphthalen-1-yl)oxy)pyridin-2-yl)amino)-5-methoxyphenoxy)ethoxy)ethyl)thio)acetic acid] | 0.0029 | solubility thermodynamic at 24 h [1, 2]: 0.03 mg/mL (≈ 36 µM); solubility thermodynamic at 24 h [1, 3]: 0.03 mg/mL (≈ 36 µM) |
| [2H]C([2H])([2H])Oc1c(NC(=O)Nc2ccc(Oc3ccnc(Nc4cc(OC)cc(OCCOCCOCC(=O)O)c4)c3)c3ccccc23)cc(C(C)(C)C)cc1NS(C)(=O)=O [Example 5, 2-(2-(2-(3-((4-((4-(3-(5-(tert-Butyl)-2-(methoxy-d3)-3-(methylsulfonamido)phenyl)ureido)-naphthalen-1-yl)oxy)pyridin-2-yl)amino)-5-methoxyphenoxy)ethoxy)ethoxy)acetic acid] | 0.0195 | – |
| COc1cc(Nc2cc(Oc3ccc(NC(=O)Nc4cc(C(C)(C)C)cc(NS(C)(=O)=O)c4OC)c4ccccc34)ccn2)cc(OCCOCCOCc2cc(=O)o[nH]2)c1 [Example 18] | 0.0293 | – |
| CCS(=O)(=O)c1cc(C(C)(C)C)cc(NC(=O)Nc2ccc(Oc3ccnc(Nc4cc(OC)cc(OCCOCCOCC(=O)O)c4)c3)c3ccccc23)c1OC [Example 15] | 0.0164 | – |
| COc1cc(Nc2cc(Oc3ccc(NC(=O)Nc4cc(C(C)(C)C)cc([S+](C)[O-])c4OC)c4ccccc34)ccn2)cc(OCCOCCOCC(=O)O)c1 (centres unmarked) [Example 8, 2-(2-(2-(3-((4-((4-(3-(5-(tert-Butyl)-2-methoxy)-3-(methylsulfinyl)phenylureido)naphthalen-1-yl)oxy)pyridin-2-yl)amino)-5-methoxyphenoxy)ethoxy)ethoxy)acetic acid] | 0.008 | solubility thermodynamic at 24 h [1, 2]: 2.8 mg/mL (≈ 3560 µM); solubility thermodynamic at 24 h [1, 3]: 3.2 mg/mL (≈ 4070 µM) |
| COc1cc(Nc2cc(Oc3ccc(NC(=O)Nc4cc(C(C)(C)C)cc(NS(C)(=O)=O)c4OC)c4ccccc34)ccn2)cc(OCCOCCOC(C)C(=O)O)c1 (single isomer, unassigned) [20(a)] | – | solubility thermodynamic at 24 h [1, 2]: 0.62 mg/mL (≈ 745 µM); solubility thermodynamic at 24 h [1, 3]: 0.64 mg/mL (≈ 769 µM) |
| COc1c(NC(=O)Nc2ccc(Oc3ccnc(Nc4cc(OCCOCCOCC(=O)O)cc(OC(F)F)c4)c3)c3ccccc23)cc(C(C)(C)C)cc1NS(C)(=O)=O [Example 28] | 0.0206 | – |
| COc1cc(Nc2cc(Oc3ccc(NC(=O)Nc4cc(C(C)(C)C)cc(NS(C)(=O)=O)c4OC)c4ccccc34)ccn2)cc(OCCOCCOC(C)C(=O)O)c1 (centres unmarked) [Example 14] | – | solubility thermodynamic at 24 h [1, 2]: 1.2 mg/mL (≈ 1440 µM); solubility thermodynamic at 24 h [1, 3]: 1.1 mg/mL (≈ 1320 µM) |
| COc1cc(Nc2cc(Oc3ccc(NC(=O)Nc4cc(C(C)(C)C)cc(NS(C)(=O)=O)c4OC)c4ccccc34)ccn2)cc(OCCOCCOCC(=O)NS(C)(=O)=O)c1 [Example 6] | 0.0181 | – |
| COc1cc(Nc2cc(Oc3ccc(NC(=O)Nc4cc(C(C)(C)C)cc(S(C)(=O)=O)c4OC)c4ccccc34)ccn2)cc(OCCOCCOCC(=O)O)c1 [Example 9, 2-(2-(2-(3-((4-((4-(3-(5-(tert-Butyl)-2-methoxy-3-(methylsulfonyl)phenyl)ureido)naphthalen-1-yl)oxy)pyridin-2-yl)amino)-5-methoxphenoxy)ethoxy)ethoxy)acetic acid] | 0.0117 | solubility thermodynamic at 24 h [1, 2]: 0.46 mg/mL (≈ 573 µM); solubility thermodynamic at 24 h [1, 3]: 0.54 mg/mL (≈ 673 µM) |
| COc1cc(Nc2cc(Oc3ccc(NC(=O)Nc4cc(C(C)(C)C)cc(NS(C)(=O)=O)c4OC)c4ccccc34)ccn2)cc(OCCOCCOCC(=O)NS(=O)(=O)N(C)C)c1 [Example 25] | 0.0263 | – |
| COc1cc(Nc2cc(Oc3ccc(NC(=O)Nc4cc(C(C)(C)C)cc(NS(C)(=O)=O)c4OC)c4ccccc34)ccn2)cc(OCCOCC2CC(C(=O)O)CO2)c1 (centres unmarked) [Example 13, 5-((2-(3-((4-((4-(3-(5-(tert-Butyl)-2-methoxy-3-methylsulfonamido)phenylureido)naphthalen-1-yl)oxy)pyridin-2-yl)amino)-5-methoxyphenoxy)ethoxy)methyl)tetrahydrofuran-3-carboxylic acid] | 0.0028 | – |
| COc1cc(Nc2cc(Oc3ccc(NC(=O)Nc4cc(C(C)(C)C)on4)c4ccccc34)ccn2)cc(OCCOCCOCC(=O)O)c1 [Example 17, 2-(2-(2-(3-((4-((4-(3-(5-(tert-Butyl)isoxazol-3-yl)ureido)naphthalen-1-yl)oxy)pyridin-2-yl)amino)-5-methoxyphenoxy)ethoxy)ethoxy)acetic acid] | – | solubility thermodynamic at 24 h [1, 2]: 1.7 mg/mL (≈ 2480 µM); solubility thermodynamic at 24 h [1, 3]: 1.5 mg/mL (≈ 2190 µM) |
